In US6946297B2, “System for stabilizing samples” (priority 1999, dated 2005):
Values joined by “and” are separate entries in the source; they are usually repeats but may differ in a detail not shown here. Equal values may be shown once.

What was measured:
Format in all cases: cell-based
Enterobacter aerogenes = test: Survival of organisms in inoculated urine with preservative components, 24 hours at room temperature; design: key to Survival value enae: 24 h count / control count; 1 = no change, 0.1 = 1-log decrease; conditions: for Concentration with cidal activity against Enterobacter aerogenes: component alone
Method: (§1) Antimicrobial activity for each active ingredient in the Chemistat I formulations was first determined for representative organisms listed in Table I. A culture for each organism of interest on blood agar was incubated at 36° C. overnight. About two to three colonies of the organism were transferred via sterile swab from the blood agar culture into a 5 ml Mueller-Hinton broth culture tube, which was then incubated on a rotator for about two to three hours at 36° C. Using a spectrophotometer set at a wavelength of 630 nm, the turbidity of broth culture was adjusted by the addition of Mueller-Hinton broth to an optical density equivalent to approximately 1×10^8 colony forming units (cfu)/ml to form an inoculum solution. An aliquot of the inoculum solution was plated onto blood agar to determine the actual control organism count. For each component listed in Table II, the component was added to filter-sterilized pooled normal urine at the concentration given in Table II to form a test sample. The test sample was then inoculated with an aliquot of the inoculum solution providing a final organism count of approximately 1×10^6 cfu/ml of test sample. Immediately after thorough mixing, an aliquot of the test sample was removed and serially diluted in PBS, and serial dilutions were plated onto blood agar to determine the Time Zero organism count. The inoculated plates were incubated at 36° C., and organism counts were recorded after 18-24 hours. After incubating the test sample for 24 hours at room temperature, an aliquot of the test sample was again removed, serially diluted in PBS and plated onto blood agar. After incubating for 18-24 hours at 36° C., organism counts were obtained. The organism count obtained after 24 hours incubation at room temperature was divided by the control organism count to provide the survival value of each organism as recorded in Table II. With respect to changes in microbial count, a survival value of 1 represents no change; a survival value of 0.1 indicates a 1-log decrease; a survival value of 10 indicates a 1-log increase; and a survival value of 0.000 represents a decrease of greater than or equal to 3-logs. In comparison, the lower the survival value, the greater the component's capacity for controlling organism growth.

Enterococcus faecalis = test: as above; design: key to Survival value enfa: 24 h count / control count; 1 = no change, 0.1 = 1-log decrease; conditions: for Concentration with cidal activity against Enterococcus faecalis: component alone
Method: as §1

Proteus vulgaris = test: as above
Method: as §1

Pseudomonas aeruginosa = test: as above; conditions: for Concentration with cidal activity against Pseudomonas aeruginosa: component alone
Method: as §1

Klebsiella pneumoniae = test: as above
Method: as §1

Candida albicans = test: as above; design: key to Survival value caal: 24 h count / control count; 1 = no change, 0.1 = 1-log decrease; conditions: for Concentration with cidal activity against Candida albicans: component alone
Method: as §1

[1] = tested on: microorganisms of interest; test: Antimicrobial (cidal) activity against the organisms of interest taken together; conditions: component alone
Method: as §1, with “With respect to changes in microbial count, a survival value of 1 represents no change; a survival value of 0.1 indicates a 1-log decrease; a survival value of 10 indicates a 1-log increase; and a survival value of 0.000 represents a decrease of greater than or equal to 3-logs. In comparison, the lower the survival value, the greater the component's capacity for controlling organism growth.” left out

Escherichia coli = test: Survival of organisms in inoculated urine with preservative components, 24 hours at room temperature; design: key to Survival value esco: 24 h count / control count; 1 = no change, 0.1 = 1-log decrease; conditions: for Concentration with cidal activity against Escherichia coli: component alone
Method: as §1

[2] = single component at 0.005 mg/ml
[3] = single component at 0.0075 mg/ml

With `OCCc1ccccc1` [2-Phenyl ethanol, 2-phenyl ethanol] as the molecule, how does the “Concentration with cidal activity against Enterobacter aerogenes” value (Enterobacter aerogenes) read?
The value was 10 μl/ml.

And the Survival value enae (Enterobacter aerogenes; single component at 1 μl/ml)?
The Survival value enae was “tntc”.

What about the Survival value enae (Enterobacter aerogenes; single component at 2.5 μl/ml) of the same molecule?
The Survival value enae was 0.092.

And the Survival value enae (Enterobacter aerogenes; single component at 4 μl/ml)?
Its Survival value enae is 0.244.

And the Survival value enae (Enterobacter aerogenes; single component at 5 μl/ml)?
Its Survival value enae is 0.440.

And the Survival value enae (Enterobacter aerogenes; single component at 10 μl/ml)?
The Survival value enae was 0.000.

And the “Concentration with cidal activity against Enterococcus faecalis” value (Enterococcus faecalis)?
Its value is greater than 10 μl/ml.

What about the Survival value enfa (Enterococcus faecalis; single component at 1 μl/ml) of the same molecule?
Its Survival value enfa is “tntc”.

And the Survival value enfa (Enterococcus faecalis; single component at 1.8 μl/ml)?
Its Survival value enfa is “tntc”.

What about the Survival value enfa (Enterococcus faecalis; single component at 2.5 μl/ml) of the same molecule?
The Survival value enfa was “tntc”.

What about the Survival value enfa (Enterococcus faecalis; single component at 4 μl/ml) of the same molecule?
Its Survival value enfa is “tntc”.

What about the Survival value enfa (Enterococcus faecalis; single component at 5 μl/ml) of the same molecule?
The Survival value enfa was “tntc”.

And the Survival value enfa (Enterococcus faecalis; single component at 10 μl/ml)?
Its Survival value enfa is 1.495.

And the Survival value prvu (Proteus vulgaris; single component at 1.8 μl/ml)?
The Survival value prvu was “tntc”.

And the “Concentration with cidal activity against Pseudomonas aeruginosa” value (Pseudomonas aeruginosa)?
Its value is 5 μl/ml.

And the Survival value psae (Pseudomonas aeruginosa; single component at 1 μl/ml)?
The Survival value psae was 4.819.

What about the Survival value psae (Pseudomonas aeruginosa; single component at 1.8 μl/ml) of the same molecule?
The Survival value psae was “tntc”.

What about the Survival value psae (Pseudomonas aeruginosa; single component at 2.5 μl/ml) of the same molecule?
Its Survival value psae is 0.199.

What about the Survival value psae (Pseudomonas aeruginosa; single component at 4 μl/ml) of the same molecule?
Its Survival value psae is 0.019.

And the Survival value psae (Pseudomonas aeruginosa; single component at 5 μl/ml)?
The Survival value psae was 0.000.

And the Survival value psae (Pseudomonas aeruginosa; single component at 10 μl/ml)?
The Survival value psae was 0.000.

And the Survival value klpn (Klebsiella pneumoniae; single component at 1.8 μl/ml)?
Its Survival value klpn is “tntc”.

What about the “Concentration with cidal activity against Candida albicans” value (Candida albicans) of the same molecule?
The value was 10 μl/ml.

What about the Survival value caal (Candida albicans; single component at 1.8 μl/ml) of the same molecule?
Its Survival value caal is “tntc”.

What about the Survival value caal (Candida albicans; single component at 4 μl/ml) of the same molecule?
The Survival value caal was 1.081.

And the Survival value caal (Candida albicans; single component at 10 μl/ml)?
Its Survival value caal is 0.000.

And the “Concentration required for cidal action” value [1]?
Its value is “greater than 2.5 μl/ml”.

And the “Concentration with cidal activity against Escherichia coli” value (Escherichia coli)?
Its value is 4 μl/ml.

What about the Survival value esco (Escherichia coli; single component at 1 μl/ml) of the same molecule?
Its Survival value esco is “tntc”.

What about the Survival value esco (Escherichia coli; single component at 1.8 μl/ml) of the same molecule?
The Survival value esco was “tntc”.

And the Survival value esco (Escherichia coli; single component at 2.5 μl/ml)?
The Survival value esco was 0.245.

And the Survival value esco (Escherichia coli; single component at 4 μl/ml)?
Its Survival value esco is 0.000.

And the Survival value esco (Escherichia coli; single component at 10 μl/ml)?
Its Survival value esco is 0.000.

For `[H]/N=C(\N/C(=N/[H])NCCCCCCNC(=N)NC(=N)Nc1ccc(Cl)cc1)Nc1ccc(Cl)cc1` [Chlorhexidine, chlorhexidine, reference compound], which “Concentration with cidal activity against Enterobacter aerogenes” value (Enterobacter aerogenes) is on record?
Its value is 0.01 mg/mL.

What about the Survival value enae (Enterobacter aerogenes; [2]) of the same molecule?
The Survival value enae was “tntc”.

And the Survival value enae (Enterobacter aerogenes; [3])?
Its Survival value enae is 6.098.

And the Survival value enae (Enterobacter aerogenes; single component at 0.01 mg/ml)?
The Survival value enae was 0.000.

What about the Survival value enae (Enterobacter aerogenes; single component at 0.05 mg/ml) of the same molecule?
Its Survival value enae is 0.000.

And the “Concentration with cidal activity against Enterococcus faecalis” value (Enterococcus faecalis)?
The value was 0.05 to 0.8 mg/mL.

What about the Survival value enfa (Enterococcus faecalis; [2]) of the same molecule?
Its Survival value enfa is 1.115.

What about the Survival value enfa (Enterococcus faecalis; [3]) of the same molecule?
The Survival value enfa was 0.598.

And the Survival value enfa (Enterococcus faecalis; single component at 0.01 mg/ml)?
Its Survival value enfa is 0.520.

What about the Survival value enfa (Enterococcus faecalis; single component at 0.02 mg/ml) of the same molecule?
Its Survival value enfa is 0.179 and 0.141.

And the Survival value enfa (Enterococcus faecalis; single component at 0.05 mg/ml)?
The Survival value enfa was 0.000.

What about the Survival value enfa (Enterococcus faecalis; single component at 0.1 mg/ml) of the same molecule?
The Survival value enfa was 0.561.

And the Survival value enfa (Enterococcus faecalis; single component at 0.8 mg/ml)?
The Survival value enfa was 0.000.

What about the “Concentration with cidal activity against Proteus vulgaris” value (Proteus vulgaris; component alone) of the same molecule?
The value was 0.02 mg/mL.

What about the Survival value prvu (Proteus vulgaris; single component at 0.02 mg/ml) of the same molecule?
The Survival value prvu was 0.000.

And the “Concentration with cidal activity against Pseudomonas aeruginosa” value (Pseudomonas aeruginosa)?
The value was greater than 0.05 mg/mL.

And the Survival value psae (Pseudomonas aeruginosa; [2])?
Its Survival value psae is “tntc”.

And the Survival value psae (Pseudomonas aeruginosa; [3])?
The Survival value psae was 4.049.

What about the Survival value psae (Pseudomonas aeruginosa; single component at 0.01 mg/ml) of the same molecule?
Its Survival value psae is 0.277.

What about the Survival value psae (Pseudomonas aeruginosa; single component at 0.05 mg/ml) of the same molecule?
The Survival value psae was 0.046.

What about the “Concentration with cidal activity against Klebsiella pneumoniae” value (Klebsiella pneumoniae; component alone) of the same molecule?
The value was 0.02 mg/mL.

And the Survival value klpn (Klebsiella pneumoniae; single component at 0.02 mg/ml)?
Its Survival value klpn is 0.000.

What about the “Concentration with cidal activity against Candida albicans” value (Candida albicans) of the same molecule?
Its value is 0.0075 mg/mL.

What about the Survival value caal (Candida albicans; [2]) of the same molecule?
Its Survival value caal is 5.308.

And the Survival value caal (Candida albicans; [3])?
Its Survival value caal is 0.000.

What about the Survival value caal (Candida albicans; single component at 0.02 mg/ml) of the same molecule?
The Survival value caal was 0.000.

And the Survival value caal (Candida albicans; single component at 0.05 mg/ml)?
Its Survival value caal is 0.000.

And the Survival value caal (Candida albicans; single component at 0.1 mg/ml)?
The Survival value caal was 0.000.

What about the Survival value caal (Candida albicans; single component at 0.8 mg/ml) of the same molecule?
The Survival value caal was 0.000.

What about the “Concentration required for cidal action” value [1] of the same molecule?
Its value is “greater than or equal to 0.01 mg/ml”.

And the “Concentration with cidal activity against Escherichia coli” value (Escherichia coli)?
Its value is 0.0075 mg/mL.

And the Survival value esco (Escherichia coli; [2])?
The Survival value esco was 0.003.

What about the Survival value esco (Escherichia coli; [3]) of the same molecule?
The Survival value esco was 0.000.

What about the Survival value esco (Escherichia coli; single component at 0.01 mg/ml) of the same molecule?
The Survival value esco was 0.000.

And the Survival value esco (Escherichia coli; single component at 0.02 mg/ml)?
The Survival value esco was 0.000.

What about the Survival value esco (Escherichia coli; single component at 0.05 mg/ml) of the same molecule?
Its Survival value esco is 0.000.

What about the Survival value esco (Escherichia coli; single component at 0.1 mg/ml) of the same molecule?
Its Survival value esco is 0.000.

And the Survival value esco (Escherichia coli; single component at 0.8 mg/ml)?
The Survival value esco was 0.000.

Which “Antimicrobial action against Enterobacter aerogenes, in words” value (Enterobacter aerogenes; concentrations as in label) does the source give for `OB(O)O` [Boric Acid, boric acid, reference compound] here?
Its value is “ineffective”.

And the Survival value enae (Enterobacter aerogenes; single component at 5 mg/ml)?
Its Survival value enae is 1.061.

What about the “Antimicrobial action against Enterococcus faecalis, in words” value (Enterococcus faecalis; concentrations as in label) of the same molecule?
The value was “ineffective”.

And the Survival value enfa (Enterococcus faecalis; single component at 5 mg/ml)?
Its Survival value enfa is 2.647.

What about the “Antimicrobial action against Pseudomonas aeruginosa, in words” value (Pseudomonas aeruginosa; concentrations as in label) of the same molecule?
The value was “ineffective”.

And the Survival value psae (Pseudomonas aeruginosa; single component at 5 mg/ml)?
Its Survival value psae is 1.157.

And the “Antimicrobial action against Escherichia coli, in words” value (Escherichia coli; concentrations as in label)?
The value was “ineffective”.

What about the Survival value esco (Escherichia coli; single component at 5 mg/ml) of the same molecule?
The Survival value esco was 0.770.
